Where two headings read alike, the source gives them in different places.
How the values were obtained:
[1] = tested on: PluxC-gfp reporter in V. coralliilyticus; assay: PluxC-gfp reporter in V. coralliilyticus strains
[2] = tested on: PluxC-gfp reporter in V. vulnificus; assay: PluxC-gfp reporter in V. vulnificus strains; conditions: Vibrio vulnificus
[3] = tested on: PluxC-gfp reporter in V. campbellii; assay: PluxC-gfp reporter in V. campbellii strains; conditions: Vibrio campbellii
[4] = tested on: PluxC-gfp reporter in V. parahaemolyticus; assay: PluxC-gfp reporter in V. parahaemolyticus strains; conditions: Vibrio parahaemolyticus
V. campbellii LuxR [5] = target: T1, V. campbellii LuxR (Vibrio harveyi, UniProt P21308); assay: E. coli dual-color bioassay (pKM699 LuxR, pJV064 reporter); type: cell-based; conditions: for Inhibition of LuxR in the E. coli bioassay (in words): GFP and mCherry reporters
T1 construct: expressed in transfected cells; host or cells: E. coli DH10B with pKM699 and reporter pJV064
T1 sequence (P21308 whole entry): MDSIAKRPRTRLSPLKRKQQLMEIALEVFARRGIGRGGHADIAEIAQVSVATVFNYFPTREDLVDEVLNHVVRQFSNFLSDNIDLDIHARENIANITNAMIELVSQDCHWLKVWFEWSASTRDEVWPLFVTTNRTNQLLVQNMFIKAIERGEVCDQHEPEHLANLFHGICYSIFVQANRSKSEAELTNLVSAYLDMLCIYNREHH
Text: Previously, we developed a bioassay that consists of a dual-color fluorescent reporter plasmid that reports both LuxR activities: the luxCDABE promoter is activated by LuxR and drives expression of gfp, and the VIBHAR_05222 promoter is repressed by LuxR and drives expression of mCherry (van Kessel et al., 2013b) (FIG. 2A). We used this reporter plasmid in an E. coli strain that also contains a plasmid expressing LuxR from its native promoter.
A bioassay was developed to monitor LuxR function that consists of a dual-color reporter plasmid (pJV064) that reports both activities: the luxCDABE promoter is activated by LuxR and drives expression of gfp, and the 05222 promoter is repressed by LuxR and drives expression of mCherry (van Kessel, Ulrich et al. 2013). This reporter plasmid was used in an E. coli strain that also contains a plasmid (pKM699) expressing LuxR from its native promoter. E. coli cultures containing these two plasmids were grown at 30° C. in LB medium with chloramphenicol (10 μg/ml) and tetracycline (10 μg/ml) to select for the two plasmids. Compounds were added to the cultures at a range of concentrations, and the cultures were incubated for 16 hours shaking at 30° C.
The dual-promoter fluorescence reporter assays were performed using E. coli strain DH10B containing two plasmids: 1) plasmid pJV064 containing the PluxC fused to GFP and P05222fused to mCherry to assess LuxR transcriptional regulation, and 2) plasmid pKM699 expressing V. campbellii luxR under control of its native promoter or empty vector pLAFR2.

V. campbellii LuxR [6] = target: T1, V. campbellii LuxR; assay: qRT-PCR and western blots in wild-type V. campbellii; type: cell-based
Text: The Qstatin-treated regulon overlapped with the SmcR regulon by more than 50%, with similar gene expression fold-changes. […] This is important to note because LuxR and HapR proteins are known to autorepress their own expression. To test the effects of adding inhibitors to V. campbellii LuxR, we added 10A, 10B, and 10C to wild-type V. campbellii and used qRT-PCR and western blots to examine the effects on luxR transcript and protein levels. We also examined the transcript levels for luxC and 05222 genes that are directly activated or repressed by LuxR, respectively.
All PCR reactions were performed using Phusion HF polymerase (NEB). T4 polynucleotide kinase (T4 PNK) used in EMSAs and all other enzymes were purchased from NEB and used according to manufacturer's instructions. Site-directed mutagenesis for construction of plasmids expressing mutant proteins was carried out using the Agilent QuikChange II XL Site-Directed Mutagenesis Kit. All oligonucleotides were purchased from Integrated DNA Technologies (IDT).ALL plasmid constructs were confirmed by DNA sequencing (Eurofins). Cloning details for plasmids are available upon request. Western blot analysis was performed as previously described (van Kessel et al., 2013b), except that new anti-LuxR antibodies were generated through Cocalico against purified LuxR protein. In addition, the western blots were probed with anti-RpoB (Neoclone).
Then cells were induced with 50 μM IPTG and grown under the same conditions until cells reached an OD600 of approximately 1, at which 5 mL of cells were collected by centrifugation and frozen in liquid N2. RNA was extracted using a Trizol/chloroform extraction protocol previously described (Rutherford et al., 2011). Quantitative real-time PCR (qRT-PCR) was performed as previously described (Chaparian et al., 2016). Samples were normalized to the internal standard hfq gene. The ΔΔCT values were used to analyze data from three independent biological replicates. Symbols on graphs represent the mean values and error bars represent the standard deviations. All statistical analysis was performed with functions from GraphPad Prism version 8.

Vibrio strains = assay: luxCDABE reporter across five Vibrio species; conditions: each Vibrio strain except V. cholerae
[7] = read-out: Inhibition (IC50) of the PluxC-gfp reporter, Vcoral OCN 008
[8] = read-out: Inhibition (IC50) of the PluxC-gfp reporter, Vcoral OCN 014
[9] = ATCC27562, read-out: Inhibition (IC50) of the PluxC-gfp reporter, Vvul ATCC 27562
[10] = read-out: Inhibition (IC50) of the PluxC-gfp reporter, Vvul CMPC6
[11] = read-out: Inhibition (IC50) of the PluxC-gfp reporter, Vvul YJ016
[12] = ATCC25920, read-out: Inhibition (IC50) of the PluxC-gfp reporter, Vcamp ATCC 25920
[13] = read-out: Inhibition (IC50) of the PluxC-gfp reporter, Vcamp BB120
[14] = read-out: Inhibition (IC50) of the PluxC-gfp reporter, Vcamp HY01
[15] = read-out: Inhibition (IC50) of the PluxC-gfp reporter, Vpara 12-297/B
[16] = read-out: Inhibition (IC50) of the PluxC-gfp reporter, Vpara D4
[17] = read-out: Inhibition (IC50) of the PluxC-gfp reporter, Vpara RIMD 2210633
[18] = read-out: IC50 in the bioassay (approximate)

Row | Structure (SMILES) | IC50 [1, 7] | IC50 [1, 8] | IC50 [2, 9] | IC50 [2, 10] | IC50 [2, 11] | IC50 [3, 12] | IC50 [3, 13] | IC50 [3, 14] | IC50 [4, 15] | IC50 [4, 16] | IC50 [4, 17] | Effect in V. coralliilyticus OCN008 (in words) ([1]; OCN008) | IC50 (V. campbellii LuxR [5]; [18]) | Inhibition of LuxR in the E. coli bioassay (in words) (V. campbellii LuxR [5]) | luxC transcripts (V. campbellii LuxR [6]; qRT-PCR, to levels in a ΔluxR strain) | 05222 transcripts (V. campbellii LuxR [6]; qRT-PCR, wild-type cultures) | LuxR protein level (V. campbellii LuxR [6]; western blot, wild-type V. campbellii) | IC50 values lower than Qstatin (Vibrio strains) | IC50 (V. campbellii LuxR [5]; Table 2, titration, 16 hours, read-out: Inhibition (IC50) of GFP production by LuxR in E. coli bioassay)
1 | O=S(=O)(c1cccs1)n1cccn1 [Compound 1B, 1-(thiophen-2-ylsulfonyl)-1H-pyrazole] | 55.7 µM | 101 µM | 3.4 µM | 29.6 µM | 6.5 µM | 12.8 µM | 52.6 µM | 23.2 µM | 11.8 µM | 18.9 µM | 15.9 µM | – | – | – | – | – | – | – | –
2 | O=S(=O)(c1ccc(Cl)s1)n1cccn1 [Compound 1C, 1-((5-chlorothiophen-2-yl)sulfonyl)-1H-pyrazole] | 9.1 µM | 9.4 µM | 0.4 µM | 2.3 µM | 0.8 µM | 0.5 µM | 3.3 µM | 1 µM | 1.6 µM | 12.5 µM | 1.7 µM | – | – | – | – | – | – | – | –
3 | O=S(=O)(c1ccccc1)n1cccn1 [Compound 1E, 1-(phenylsulfonyl)-1H-pyrazole] | 49.2 µM | 66.2 µM | 2.7 µM | 22 µM | 4.6 µM | 8.4 µM | 51.4 µM | 14.8 µM | 8.1 µM | 12.7 µM | 11 µM | – | – | – | – | – | – | – | –
4 | O=S(=O)(c1ccc(Br)s1)n1cccc1 [Compound 3A, 1-((5-bromothiophen-2-yl)sulfonyl)-1H-pyrrole] | 23.1 µM | 22.6 µM | 0.7 µM | 6.1 µM | 1.3 µM | – | 15 µM | 1.6 µM | 3 µM | 2.8 µM | 2.6 µM | – | – | – | – | – | – | – | –
5 | O=S(=O)(c1cccs1)n1cccc1 [Compound 3B, 1-(thiophen-2-ylsulfonyl)-1H-pyrrole] | 39.2 µM | 95.1 µM | 0.9 µM | 5.9 µM | 1.5 µM | 2 µM | 18.9 µM | 3.6 µM | 4 µM | 3.5 µM | 2.5 µM | most noticeable effect | – | – | – | – | – | – | –
6 | O=S(=O)(c1ccc(Cl)s1)n1cccc1 [Compound 3C, 1-((5-chlorothiophen-2-yl)sulfonyl)-1H-pyrrole] | 1.3 µM | – | 0.5 µM | – | – | – | 8.3 µM | – | – | – | 2 µM | – | – | – | – | – | – | – | –
7 | Cc1ccn(S(=O)(=O)c2ccc(Br)s2)n1 [Compound 8A, 1-((5-bromothiophen-2-yl)sulfonyl)-3-methyl-1H-pyrazole] | 4.2 µM | 9.6 µM | 0.4 µM | 2.1 µM | 0.5 µM | 0.7 µM | 3.8 µM | 1.2 µM | 2.1 µM | 2.4 µM | 2 µM | – | 10 to 20 µM | – | – | – | – | – | –
8 | Cc1ccn(S(=O)(=O)c2cccs2)n1 [Compound 8B, 3-methyl-1-(thiophen-2-ylsulfonyl)-1H-pyrazole] | 26.1 µM | 26.8 µM | 1.9 µM | 11.5 µM | 3 µM | 3.9 µM | 32.4 µM | 8.7 µM | 6.7 µM | 8.4 µM | 7.3 µM | – | – | does not show inhibition | – | – | – | – | –
9 | Cc1ccn(S(=O)(=O)c2ccc(Cl)s2)n1 [Compound 8C, 1-((5-chlorothiophen-2-yl)sulfonyl)-3-methyl-1H-pyrazole] | 2.7 µM | 8.4 µM | 0.7 µM | 4.6 µM | 1 µM | 1.5 µM | 6.7 µM | 2.7 µM | 3.3 µM | 4.5 µM | 3.8 µM | – | 10 to 20 µM | – | – | – | – | – | –
10 | O=S(=O)(c1ccc(Br)s1)n1ccc(-c2ccccc2)n1 [Compound 10A, 1-((5-bromothiophen-2-yl)sulfonyl)-3-phenyl-1H-pyrazole] | 2.09 µM | 2.01 µM | 0.00144 µM | 0.0339 µM | 0.00584 µM | 0.05 µM | 0.58 µM | 0.4 µM | 1.03 µM | 0.87 µM | 0.63 µM | – | 1 to 2 µM | most potent | significantly decreased | significantly increased | visible increase | ~10 fold | –
11 | O=C(c1ccc(COc2ccc(Cl)cc2)o1)N1CCN(Cc2ccc3c(c2)OCO3)CC1 [P0053 I18, (4-(benzo[d][1,3]dioxol-5-ylmethyl)piperazin-1-yl)(5-((4-chlorophenoxy)methyl)furan-2-yl)methanone] | 18.9 µM | 10.4 µM | 0.7 µM | 4.9 µM | 3.2 µM | 1.8 µM | 2 µM | 4.3 µM | 8.1 µM | 6.4 µM | 2.8 µM | – | – | – | – | – | – | – | –
12 | O=S(=O)(c1ccc(Br)s1)N1CCCC1 [P0074 H04, 1-((5-bromothiophen-2-yl)sulfonyl)pyrrolidine] | – | – | – | – | – | – | – | – | – | – | – | – | ~35 µM | consistent inhibition | – | – | – | – | –
13 | FC(F)(F)C1CN(c2nc(-c3ccccc3)cs2)CCO1 (stereo not shown) [P2065 E16, 4-(4-phenylthiazol-2-yl)-2-(trifluoromethyl)morpholine] | – | – | – | – | – | – | – | – | – | – | – | – | – | only a minor inhibition | – | – | – | – | 5.3 µM

From patent US20230257373A1, “QUORUM SENSING INHIBITORS AND METHODS OF USE” (priority 2020, published 2023)
